{"source": "patent US20240408169A1", "about": "(priority 2023, published 2024)", "key": {"[1]": {"biological_target": "T1, CyclinA2/CDK2 (Homo sapiens, UniProt P20248)", "T1 construct": "purchased CRELUX Protein Services", "experiment": "Fluorescence Polarization (FP) competitive binding assay, Cyclin A2/Cdk2;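 note: plates equilibrated two hours at room temperature before polarization reading, IC50 fitted from eight-concentration compound titration curves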"}, "[2]": {"tested_on": "OVCAR3 cells", "experiment": "MTT proliferation assay, OVCAR3;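 note: compound given as an 8- or 10-point series, one day after plating, with exposure covering roughly 3-4 cell doublings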", "format": "cell-based", "conditions": "5 days compound exposure, 1:3 serial dilution starting at 10 μM"}, "[3]": {"biological_target": "T2, CyclinB1/CDK1 (Homo sapiens, UniProt P14635)", "T2 construct": "purchased Eurofins, discovery 14-450", "experiment": "Fluorescence Polarization (FP) competitive binding assay, Cyclin B1/Cdk1;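 note: fluorescence polarization read after equilibration at room temperature, with IC50 taken from serially diluted dose-response curves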"}, "[4]": {"biological_target": "T3, CyclinE1/CDK2 (Homo sapiens, UniProt P24864)", "T3 construct": "purchased Eurofins, discovery 14-475", "experiment": "Fluorescence Polarization (FP) competitive binding assay, Cyclin E1/Cdk2;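 note: readings taken after two-hour equilibration at room temperature in HEPES buffer with NaCl, DTT, NP-40 and BSA, IC50 fitted from eight-concentration serial dilution series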"}, "[5]": {"tested_on": "NCI-H1048 cells", "experiment": "MTT proliferation assay, NCI-H1048;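 note: Dose-response in 96-well plates over 8 or 10 concentration points, with exposure spanning 3-4 cell doublings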", "format": "cell-based", "conditions": "5 days compound exposure, 1:3 serial dilution starting at 10 μM"}, "[6]": {"tested_on": "WI-38 cells", "experiment": "MTT proliferation assay, WI-38;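 note: Eight- or ten-point dilution series, with exposure length chosen to span about three to four cell doublings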", "format": "cell-based", "conditions": "3 days compound exposure, 1:3 serial dilution starting at 10 μM"}, "[7]": {"conditions": "8 nM Cyclin A2/Cdk2, 2 nM FAM probe, average of 2-3 independent experiments, read-out: Cyclin A FP IC50"}, "[8]": {"conditions": "10 nM Cyclin B1/Cdk1, 2 nM FAM probe; average of 2-3 independent experiments; read-out: Cyclin B FP IC50"}, "[9]": {"conditions": "10 nM Cyclin E1/Cdk2, 2 nM FAM probe, average of 2-3 independent experiments, read-out: Cyclin E FP IC50"}}, "note": "Like-named read-outs stand apart in the source and are kept apart here. *1 amine or outer side, *2 acyl side, *3 side chain or, on linkers, in order; H or OH if unused. Where a SMILES comes first, the peptide text is derived from it. Bridges are numbered along the chain shown (N, C = ends). [ ]: non-standard residue; d: D form. The star is where a group is joined. X10 = CC(C)C(=O)N1[C@H]2COC[C@@H]1C=C(c1ccc(Cl)cc1C[C@@H](C(=O)[*:2])N(C)[*:1])C2; NMePhe(2-(4-MorPh),5-Cl) = CN[C@@H](Cc1cc(Cl)ccc1-c1ccc(N2CCOCC2)cc1)C(=O)O; X50 = CN([C@@H](Cc1cc(Cl)ccc1-c1ccc(N2CCN(C3COC3)CC2)cc1)C(=O)[*:2])[*:1]; X70 = CN1CCC[C@@H](c2ccc(-c3ccc(Cl)cc3C[C@@H](C(=O)[*:2])N(C)[*:1])cc2)C1; X45 = CN1CCC(F)(c2ccc(-c3ccc(Cl)cc3C[C@@H](C(=O)[*:2])N(C)[*:1])cc2)CC1; X30 = CN([C@@H](Cc1cc(Cl)ccc1-c1ccc2c(c1)ncn2C)C(=O)[*:2])[*:1]; NMehhhLys(Me) = CN([C@@H](CCCCCCCN(C)[*:3])C(=O)[*:2])[*:1]; NMe(hhhLys) = CN([C@@H](CCCCCCCN[*:3])C(=O)[*:2])[*:1]; X28 = CN([C@@H](Cc1cc(Cl)cnc1OC1CCC1)C(=O)[*:2])[*:1]; cBuCO(3,3-F2-1-CF3) = O=C(C1(C(F)(F)F)CC(F)(F)C1)*; Pro(trans-4-F) = O=C(O)[C@@H]1C[C@@H](F)CN1; Gly(cPr) = N[C@H](C(=O)O)C1CC1; X20 = O=C(C1(Cl)CC1)*"}
{"smiles": "CC(C)C[C@@H]1NC(=O)[C@@H](N(C)C(=O)[C@@H](NC(=O)[C@@H]2C[C@@H](F)CN2C(=O)C2(C(F)(F)F)CC(F)(F)C2)C2CC2)CCCCCCCNC(=O)[C@H](Cc2cc(Cl)ccc2C2=C[C@H]3COC[C@@H](C2)N3C(=O)C(C)C)N(C)C1=O", "note": "[Example 327] ({cBuCO(3,3-F2-1-CF3)}-[Pro(trans-4-F)][Gly(cPr)][NMe(hhhLys)]L[X10]; lactam 3-C)", "values": [{"measurement": "IC50", "setting": "[1]; [7]", "result": 20, "unit": "nM"}, {"measurement": "GI50", "setting": "[2]", "result": 10, "unit": "nM"}, {"measurement": "IC50", "setting": "[3]; [8]", "result": 20, "unit": "nM"}, {"measurement": "IC50", "setting": "[4]; [9]", "result": 400, "unit": "nM"}, {"measurement": "GI50", "setting": "[5]", "result": 10, "unit": "nM"}, {"measurement": "GI50", "setting": "[6]", "result": 83900, "unit": "nM"}]}
{"smiles": "CC(C)C[C@@H]1NC(=O)[C@@H](N(C)C(=O)[C@@H](NC(=O)[C@@H]2C[C@@H](F)CN2C(=O)C2(C(F)(F)F)CC(F)(F)C2)C2CC2)CCCCCCCN(C)C(=O)[C@H](Cc2cc(Cl)ccc2-c2ccc(N3CCN(C4COC4)CC3)cc2)N(C)C1=O", "note": "[Example 346] ({cBuCO(3,3-F2-1-CF3)}-[Pro(trans-4-F)][Gly(cPr)][NMehhhLys(Me)]L[X50]; lactam 3-C)", "values": [{"measurement": "IC50", "setting": "[1]; [7]", "result": 20, "unit": "nM"}, {"measurement": "GI50", "setting": "[2]", "result": 10, "unit": "nM"}, {"measurement": "IC50", "setting": "[3]; [8]", "result": 20, "unit": "nM"}, {"measurement": "IC50", "setting": "[4]; [9]", "result": 360, "unit": "nM"}, {"measurement": "GI50", "setting": "[5]", "result": 10, "unit": "nM"}, {"measurement": "GI50", "setting": "[6]", "result": 3680, "unit": "nM"}]}
{"smiles": "CC(C)C[C@@H]1NC(=O)[C@@H](N(C)C(=O)[C@@H](NC(=O)[C@@H]2C[C@@H](F)CN2C(=O)C2(C(F)(F)F)CC(F)(F)C2)C2CC2)CCCCCCCN(C)C(=O)[C@H](Cc2cc(Cl)ccc2-c2ccc3c(c2)ncn3C)N(C)C1=O", "note": "[Example 251] ({cBuCO(3,3-F2-1-CF3)}-[Pro(trans-4-F)][Gly(cPr)][NMehhhLys(Me)]L[X30]; lactam 3-C)", "values": [{"measurement": "IC50", "setting": "[1]", "result": 40, "unit": "nM"}, {"measurement": "GI50", "setting": "[2]", "result": 10, "unit": "nM"}, {"measurement": "IC50", "setting": "[3]; read-out: Cyclin B FP IC50; 10 nM Cyclin B1/Cdk1, 2 nM FAM probe; average of 2-3 independent experiments", "result": 20, "unit": "nM"}, {"measurement": "IC50", "setting": "[4]", "result": 930, "unit": "nM"}, {"measurement": "GI50", "setting": "[5]", "result": 10, "unit": "nM"}, {"measurement": "GI50", "setting": "[6]", "result": 13900, "unit": "nM"}]}
{"smiles": "CC(C)C[C@@H]1NC(=O)[C@@H](N(C)C(=O)[C@@H](NC(=O)[C@@H]2C[C@@H](F)CN2C(=O)C2(Cl)CC2)C2CC2)CCCCCCCN(C)C(=O)[C@H](Cc2cc(Cl)ccc2-c2ccc(N3CCOCC3)cc2)N(C)C1=O", "note": "[Example 398] (X20-[Pro(trans-4-F)][Gly(cPr)][NMehhhLys(Me)]L[NMePhe(2-(4-MorPh),5-Cl)]; lactam 3-C)", "values": [{"measurement": "IC50", "setting": "[1]; [7]", "result": 20, "unit": "nM"}, {"measurement": "GI50", "setting": "[2]", "result": 190, "unit": "nM"}, {"measurement": "IC50", "setting": "[3]; [8]", "result": 20, "unit": "nM"}, {"measurement": "IC50", "setting": "[4]; [9]", "result": 590, "unit": "nM"}, {"measurement": "GI50", "setting": "[5]", "result": 140, "unit": "nM"}, {"measurement": "GI50", "setting": "[6]", "result": 3640, "unit": "nM"}]}
{"smiles": "CC(C)C[C@@H]1NC(=O)[C@@H](N(C)C(=O)[C@@H](NC(=O)[C@@H]2C[C@@H](F)CN2C(=O)C2(C(F)(F)F)CC(F)(F)C2)C2CC2)CCCCCCCN(C)C(=O)[C@H](Cc2cc(Cl)ccc2-c2ccc([C@@H]3CCCN(C)C3)cc2)N(C)C1=O", "note": "[Example 411] ({cBuCO(3,3-F2-1-CF3)}-[Pro(trans-4-F)][Gly(cPr)][NMehhhLys(Me)]L[X70]; lactam 3-C)", "values": [{"measurement": "IC50", "setting": "[1]; [7]", "result": 20, "unit": "nM"}, {"measurement": "GI50", "setting": "[2]", "result": 10, "unit": "nM"}, {"measurement": "IC50", "setting": "[3]; [8]", "result": 20, "unit": "nM"}, {"measurement": "IC50", "setting": "[4]; [9]", "result": 760, "unit": "nM"}, {"measurement": "GI50", "setting": "[5]", "result": 10, "unit": "nM"}, {"measurement": "GI50", "setting": "[6]", "result": 1610, "unit": "nM"}]}
{"smiles": "CC(C)C[C@@H]1NC(=O)[C@@H](N(C)C(=O)[C@@H](NC(=O)[C@@H]2C[C@@H](F)CN2C(=O)C2(C(F)(F)F)CC(F)(F)C2)C2CC2)CCCCCCCN(C)C(=O)[C@H](Cc2cc(Cl)ccc2-c2ccc(C3(F)CCN(C)CC3)cc2)N(C)C1=O", "note": "[Example 370] ({cBuCO(3,3-F2-1-CF3)}-[Pro(trans-4-F)][Gly(cPr)][NMehhhLys(Me)]L[X45]; lactam 3-C)", "values": [{"measurement": "IC50", "setting": "[1]; [7]", "result": 20, "unit": "nM"}, {"measurement": "GI50", "setting": "[2]", "result": 20, "unit": "nM"}, {"measurement": "IC50", "setting": "[3]; [8]", "result": 20, "unit": "nM"}, {"measurement": "IC50", "setting": "[4]; [9]", "result": 780, "unit": "nM"}, {"measurement": "GI50", "setting": "[5]", "result": 20, "unit": "nM"}, {"measurement": "GI50", "setting": "[6]", "result": 1210, "unit": "nM"}]}
{"smiles": "CC(C)C[C@@H]1NC(=O)[C@@H](N(C)C(=O)[C@@H](NC(=O)[C@@H]2C[C@@H](F)CN2C(=O)C2(C(F)(F)F)CC(F)(F)C2)C2CC2)CC=CCCCCNC(=O)[C@H](Cc2cc(Cl)ccc2C2=CCOCC2)N(C)C1=O", "note": "[Example 17]", "values": [{"measurement": "IC50", "setting": "[1]; [7]", "result": 90, "unit": "nM"}, {"measurement": "GI50", "setting": "[2]", "result": 560, "unit": "nM"}, {"measurement": "IC50", "setting": "[3]; [8]", "result": 20, "unit": "nM"}, {"measurement": "IC50", "setting": "[4]; [9]", "result": 4110, "unit": "nM"}, {"measurement": "GI50", "setting": "[5]", "result": 240, "unit": "nM"}, {"measurement": "GI50", "setting": "[6]", "result": 17900, "unit": "nM"}]}
{"smiles": "CC(C)C[C@@H]1NC(=O)[C@@H](N(C)C(=O)[C@@H](NC(=O)[C@@H]2C[C@@H](F)CN2C(=O)C2(C(F)(F)F)CC(F)(F)C2)C2CC2)CCCCCCCNC(=O)[C@H](Cc2cc(Cl)cnc2OC2CCC2)N(C)C1=O", "note": "[Example 142] ({cBuCO(3,3-F2-1-CF3)}-[Pro(trans-4-F)][Gly(cPr)][NMe(hhhLys)]L[X28]; lactam 3-C)", "values": [{"measurement": "IC50", "setting": "[1]; [7]", "result": 40, "unit": "nM"}, {"measurement": "GI50", "setting": "[2]", "result": 190, "unit": "nM"}, {"measurement": "IC50", "setting": "[3]; [8]", "result": 20, "unit": "nM"}, {"measurement": "IC50", "setting": "[4]; [9]", "result": 150, "unit": "nM"}, {"measurement": "GI50", "setting": "[5]", "result": 110, "unit": "nM"}, {"measurement": "GI50", "setting": "[6]", "result": 10200, "unit": "nM"}]}
{"smiles": "CC(C)C[C@@H]1NC(=O)[C@@H](N(C)C(=O)[C@@H](NC(=O)[C@@H]2C[C@@H](F)CN2C(=O)C2(C(F)(F)F)CCC2)C2CC2)CC=CCCCCN(C)C(=O)[C@H](Cc2cc(Cl)cnc2OC(C)C)N(C)C1=O", "note": "[Example 137]", "values": [{"measurement": "IC50", "setting": "[1]; [7]", "result": 60, "unit": "nM"}, {"measurement": "GI50", "setting": "[2]", "result": 760, "unit": "nM"}, {"measurement": "IC50", "setting": "[3]; [8]", "result": 20, "unit": "nM"}, {"measurement": "IC50", "setting": "[4]; [9]", "result": 130, "unit": "nM"}, {"measurement": "GI50", "setting": "[5]", "result": 600, "unit": "nM"}, {"measurement": "GI50", "setting": "[6]", "result": 4580, "unit": "nM"}]}
